Data set [1] in a line: Protective index, ratio of ID50 for locomotory activity to ED50 for antinociceptive activity in orally dosed ddY mouse. The data set is classed as toxicity, organism-based. The settings on record: in vivo, po.
In data set [2] the test system is Mus musculus. In words: Antinociceptive activity in orally dosed ddY mouse model assessed as inhibition of acetic acid-induced writhes pretreated for 30 mins followed by acetic acid challenge and measured for 25 mins post acetic acid challenge. Type of data set: functional. The settings on record: po, 55 min.
Data set [3] in a line: Effect on spontaneous locomotory activity in orally dosed ddY mouse measured for 1 hr. The data set is classed as ADME, organism-based. The settings on record: in vivo, po.
The subject of data set [4] is Mus musculus. The experiment in a line: Antinociceptive activity in ddY mouse model assessed as inhibition of acetic acid-induced writhes at 30 mg/kg, po pretreated for 30 mins followed by acetic acid challenge and measured for 25 mins post acetic acid challenge. The settings on record: 55 min. Type of data set: functional.
A short description of data set [5]: 1-Octanol-PBS buffer distribution coefficient, log D of compound at pH 7.4. The data set is classed as physicochemical.
Data set [6] has as its target T1, hERG (KCNH2) (Homo sapiens, UniProt Q12809). In words: Inhibition of human ERG expressed in HEK293 cells at 10 uM at - 80 mV holding potential by whole cell patch clamp assay relative to control. Type of data set: cell-based. The settings on record: HEK293 cells expressing human ERG. On the technique in general: The patch-clamp technique gives a direct electrical read-out from membranes.

Data set [7] is described as follows: Metabolic stability in CD1 mouse liver microsomes assessed as compound remaining measured after 0.5 hrs by LC/MS-MS analysis. Type of data set: ADME, Microsome. The settings on record: read-out: Stabilty.
Data set [8] addresses T1, hERG (KCNH2). The experiment in a line: Inhibition of human ERG expressed in HEK293 cells at 30 uM at - 80 mV holding potential by whole cell patch clamp assay relative to control. The data set is classed as cell-based. The settings on record: HEK293 cells expressing human ERG.
Data set [9] can be described thus: Cmax in ddY mouse at 10 mg/kg, po by LC-MS/MS method. The data set is classed as ADME, organism-based. On the set-up: route oral, dose 10 mg/kg. The settings on record: in vivo.
Data set [10] is described as follows: AUC in ddY mouse at 10 mg/kg, po by LC-MS/MS method. Type of data set: ADME, organism-based. On the set-up: dose 10 mg/kg. The settings on record: in vivo.
Data set [11] is described as follows: Half life in ddY mouse at 10 mg/kg, po by LC-MS/MS method. The data set is classed as ADME, organism-based. The settings on record: in vivo.
Data set [12] concerns the target T2, Mu-type opioid receptor (Homo sapiens, UniProt P35372). The experiment in a line: Agonist activity at human MOR expressed in CHOK1 cells assessed as inhibition of forskolin-stimulated cAMP accumulation by FRET assay relative to DAMGO. The data set is classed as cell-based. The settings on record: CHO-K1, human. (In general: Cyclic AMP is a second messenger, typically raised through Gs and lowered through Gi signalling.)

The target in data set [13] is T2, Mu-type opioid receptor. The experiment in a line: Displacement of [3H]diprenorphine from human MOR incubated for 1 hr. (In a radioligand displacement assay an active substance lowers the binding of a labelled ligand.)
The subject of data set [14] is Mus musculus. The experiment in a line: Analgesic activity in formalin-induced orally dosed ddY mouse model of hyperalgesia assessed as time spent in paw licking during acute phase pretreated for 30 mins followed by formalin challenge and measured for 10 mins. The data set is classed as functional. The settings on record: po, 0.5 h.

T1 sequence (Q12809 whole entry): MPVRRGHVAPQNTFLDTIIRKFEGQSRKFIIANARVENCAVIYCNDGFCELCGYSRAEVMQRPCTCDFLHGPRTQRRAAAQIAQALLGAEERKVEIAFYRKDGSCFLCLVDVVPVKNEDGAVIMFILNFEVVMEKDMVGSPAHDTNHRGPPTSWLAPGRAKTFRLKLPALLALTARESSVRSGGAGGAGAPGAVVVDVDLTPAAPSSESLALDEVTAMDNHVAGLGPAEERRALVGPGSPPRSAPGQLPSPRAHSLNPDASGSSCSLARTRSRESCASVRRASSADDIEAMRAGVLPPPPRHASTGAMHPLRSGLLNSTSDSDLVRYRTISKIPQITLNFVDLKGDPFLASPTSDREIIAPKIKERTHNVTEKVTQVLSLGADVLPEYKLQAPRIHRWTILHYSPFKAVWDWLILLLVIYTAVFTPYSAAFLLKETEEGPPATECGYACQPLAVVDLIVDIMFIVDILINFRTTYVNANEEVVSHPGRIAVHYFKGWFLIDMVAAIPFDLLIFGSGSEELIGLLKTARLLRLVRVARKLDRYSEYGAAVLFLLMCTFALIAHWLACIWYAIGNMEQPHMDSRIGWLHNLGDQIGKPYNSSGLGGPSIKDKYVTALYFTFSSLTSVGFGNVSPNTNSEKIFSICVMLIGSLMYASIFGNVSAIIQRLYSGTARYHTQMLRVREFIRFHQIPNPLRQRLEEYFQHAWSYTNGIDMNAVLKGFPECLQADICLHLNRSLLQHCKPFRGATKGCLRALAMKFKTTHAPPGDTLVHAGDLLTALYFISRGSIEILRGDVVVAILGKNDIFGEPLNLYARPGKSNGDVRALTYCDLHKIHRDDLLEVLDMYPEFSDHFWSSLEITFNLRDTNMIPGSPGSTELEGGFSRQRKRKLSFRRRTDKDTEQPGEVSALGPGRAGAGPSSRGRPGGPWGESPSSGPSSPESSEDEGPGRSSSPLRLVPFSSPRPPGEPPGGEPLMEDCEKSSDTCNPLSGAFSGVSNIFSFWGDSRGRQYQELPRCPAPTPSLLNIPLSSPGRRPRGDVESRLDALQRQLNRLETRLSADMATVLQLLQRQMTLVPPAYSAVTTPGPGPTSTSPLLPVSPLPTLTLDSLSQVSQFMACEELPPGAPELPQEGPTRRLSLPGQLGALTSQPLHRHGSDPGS
T2 sequence (P35372 whole entry): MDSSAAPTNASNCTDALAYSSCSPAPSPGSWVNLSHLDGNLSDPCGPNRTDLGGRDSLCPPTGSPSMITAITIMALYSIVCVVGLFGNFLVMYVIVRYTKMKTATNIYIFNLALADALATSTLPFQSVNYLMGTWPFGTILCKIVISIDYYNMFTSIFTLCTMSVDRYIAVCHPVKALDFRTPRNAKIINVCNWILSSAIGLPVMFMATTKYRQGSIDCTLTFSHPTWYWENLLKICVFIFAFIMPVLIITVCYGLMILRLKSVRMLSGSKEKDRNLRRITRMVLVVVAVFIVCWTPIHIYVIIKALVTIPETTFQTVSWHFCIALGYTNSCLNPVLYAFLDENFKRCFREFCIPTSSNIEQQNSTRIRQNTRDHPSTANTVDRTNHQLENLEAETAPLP

By ED50 is commonly meant the dose that gives a 50% effect, or the effect in half of the subjects. Consider `CN1C(=O)c2[nH]c3ccccc3c2CN2CC[C@H]1C2`, for which, in [1], the selectivity ratio was found to be 2.1. For the same molecule, the ED50 in the data set on Mus musculus [2] was determined as 8.7 mg/kg. Moreover, the ID50 in data set [3] was found to be 19 mg/kg.
As a reminder, the inhibition in vivo is the percentage by which the read-out fell short of the control. Broadly, the logD is lipophilicity at a set pH, counting ionised and neutral species. By inhibition is commonly meant the drop in the measured response relative to a control, in per cent. As for `CCN1C(=O)c2ccccc2CN2CC[C@H]1C2`, in the data set on Mus musculus [4], the inhibition in vivo at 30 mg/kg was 45%. Besides, the logD in data set [5] is 0.4. At hERG (KCNH2) [6], the inhibition at 10 µM came to 6%. In addition, in data set [7], the remaining at 0.5 h was 80%.
`CN1C(=O)c2cccc(F)c2CN2C[C@@H]1C1(CC1)C2` had a logD in [5] of 0.9. Also, the remaining at 0.5 h in [7] was determined as 79%. In addition, on hERG (KCNH2) [8], the inhibition at 30 µM was 0%. Besides, the ED50 with Mus musculus [2] amounted to 14 mg/kg.
For orientation: Cmax means the highest concentration seen after dosing. In general, AUC refers to concentration integrated over time. For `CN1C(=O)c2ccccc2CN2C[C@@H]1C1(CC1)C2`, in the data set on Mus musculus [4], the inhibition in vivo at 30 mg/kg was 84%. Besides, in [5], the logD was found to be 0.5. This molecule also returned a Cmax in data set [9] of 5.24 µM. Further, the inhibition at 10 µM against hERG (KCNH2) [6] came out at 14%. Besides, in data set [7], the remaining at 0.5 h was 81%. For the same molecule, at hERG (KCNH2) [8], the inhibition at 30 µM came to 15%. In addition, the ED50 with Mus musculus [2] came to 15 mg/kg. The same molecule yielded an AUC in data set [10] of 5.24 µM·h.
On to `CN1C(=O)c2ccccc2CN2CC[C@H]1C2`, for which, in the data set on Mus musculus [4], the inhibition in vivo at 30 mg/kg was found to be 97%. The logD in data set [5] is 0.3. For the same molecule, in data set [1], the selectivity ratio was above 3.4. Besides, in data set [9], the highest level (Cmax) was 3.74 µM. In addition, the inhibition at 10 µM against hERG (KCNH2) [6] worked out at 5%. Moreover, the remaining at 0.5 h in data set [7] is 82%. Besides, in the data set with Mus musculus [2], the ED50 came out at 25 mg/kg. The AUC in [10] was determined as 7.79 µM·h. This molecule also returned an ID50 in data set [3] above 85 mg/kg.
Molecule `CN1C(=O)c2c(F)cccc2CN2C[C@@H]1C1(CC1)C2` came in with a logD in data set [5] of 1. Also, in data set [7], the remaining at 0.5 h was 79%. Moreover, the inhibition at 30 µM against hERG (KCNH2) [8] turned out to be 0%. The ED50 in the data set on Mus musculus [2] is 35 mg/kg.
Take `O=C1c2ccccc2CN2CCCN1CC2`: the inhibition in vivo at 30 mg/kg in the data set with Mus musculus [4] came out at 24%. The molecule further had a logD in [5] of 0.6. On hERG (KCNH2) [6], the inhibition at 10 µM is -1%. In data set [7], the remaining at 0.5 h was 78%.
`C/C=C1/CN2CC[C@H]1C(=O)c1[nH]c3ccccc3c1C2`: the selectivity ratio in data set [1] came out at 2.2. For the same molecule, in the data set on Mus musculus [2], the ED50 was 32 mg/kg. Besides, the ID50 in data set [3] is 69 mg/kg.
Turning to `CN1C(=O)c2ccccc2CN2CCC[C@H]1C2`, the inhibition in vivo at 30 mg/kg with Mus musculus [4] amounted to 77%. In data set [5], this molecule returned a logD of 0.3. For the same molecule, the Cmax in [9] worked out at 1.97 µM. Further, on hERG (KCNH2) [6], the inhibition at 10 µM turned out to be 5%. The remaining at 0.5 h in data set [7] came to 62%. Further, in the data set with Mus musculus [2], the ED50 was 23 mg/kg. The molecule also came in with an area under the curve (AUC) in [10] of 1.97 µM·h.
Regarding `CN1C(=O)c2cc(F)ccc2CN2C[C@@H]1C1(CC1)C2`, the logD in data set [5] came to 0.9. Moreover, the remaining at 0.5 h in data set [7] was found to be 81%. For the same molecule, at hERG (KCNH2) [8], the inhibition at 30 µM turned out to be 14%. For the same molecule, in the data set on Mus musculus [2], the ED50 stood at 36 mg/kg.
For the molecule `CC12CCN(CC1)Cc1c([nH]c3ccccc13)C2=O`, the selectivity ratio in data set [1] came out at 2.1. Also, the ED50 in the data set with Mus musculus [2] worked out at 7.8 mg/kg. For the same molecule, the ID50 in data set [3] turned out to be 16 mg/kg.
One may read the half-life as the time in which the quantity being followed falls by half. The Emax is the size of the effect at its maximum, as opposed to the concentration needed. What is called EC50 is the midpoint of the concentration-response curve. In turn, `CN1C(=O)c2ccc(F)cc2CN2C[C@@H]1C1(CC1)C2` showed a half-life in data set [11] of 1.9 h. Besides, the logD in data set [5] was 0.9. Moreover, the selectivity ratio in data set [1] worked out at 10.3. In data set [9], this molecule showed a Cmax of 1.47 µM. Moreover, on Mu-type opioid receptor [12], the Emax was 18%. This molecule also displayed an EC50 at Mu-type opioid receptor [13] above 100 µM. In [7], the remaining at 0.5 h was 83%. Besides, the inhibition at 30 µM on hERG (KCNH2) [8] amounted to 2%. Also, the ED50 was determined as 6.4 mg/kg in the data set with Mus musculus [2] and 16 mg/kg with Mus musculus [14]. The same molecule registered an AUC in data set [10] of 1.74 µM·h. In addition, in data set [3], the ID50 came out at 66 mg/kg.
Consider `CC1c2ccccc2C(=O)N(C)[C@H]2CCN1C2` (some centres undefined), for which the inhibition in vivo at 30 mg/kg with Mus musculus [4] turned out to be 31%. The same molecule came in with a logD in data set [5] of 0.3. The inhibition at 10 µM against hERG (KCNH2) [6] turned out to be 6%. In addition, the remaining at 0.5 h in [7] came out at 81%.

The values are drawn from ChEMBL document CHEMBL4665855, “Discovery of DS34942424: An orally potent analgesic without mu opioid receptor agonist activity” (Bioorg Med Chem, 2020).
